Patent US9796679B2, “Type 4 prepilin peptidase inhibitors and methods of use” (priority 2014, dated 2017)

Target: T1, TcpJ (Vibrio cholerae serotype O1, UniProt A5F385)
T1 construct: made in house; host or cells: E. coli JM109 carrying pCL9 (total membrane fraction)
T1 sequence (A5F385 1-253): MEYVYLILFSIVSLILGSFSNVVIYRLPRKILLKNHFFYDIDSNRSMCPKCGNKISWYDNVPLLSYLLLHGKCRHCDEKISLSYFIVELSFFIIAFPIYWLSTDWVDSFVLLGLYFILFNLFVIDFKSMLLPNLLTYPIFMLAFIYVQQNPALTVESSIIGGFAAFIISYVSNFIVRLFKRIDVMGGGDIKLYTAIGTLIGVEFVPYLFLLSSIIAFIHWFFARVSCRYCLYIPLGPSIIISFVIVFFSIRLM
Assay: In vitro TcpA prepilin cleavage assay with inhibitors
Assay type: biochemical
Conditions: compared to compounds where R is methyl
Protocol: By way of illustration, the effect of inhibitors on the peptidase activity of TcpJ can be determined by incubating the inhibitor with an amount of membrane preparation known to contain 1 unit of activity of TcpJ for 30 minutes at room temperature. The TcpJ/inhibitor mixture is then tested for peptidase activity. Amounts of cleaved TcpA prepilin can be quantitated and applied to the formula: % cleavage=(amount of cleaved TcpA in inhibition assay/amount of cleaved TcpA in no inhibitor control assay)×100.
Membrane preparations were prepared according to a modified cell fractionation protocol (Pfau (1998) J. Bact. 180(17):4724-33). Overnight cultures were placed on ice for 20 minutes then pelleted at 5000×g for 10 minutes. The cell pellet was resuspended in 1 ml 200 mM Tris pH 8.0 to which 1 ml 50 mM Tris pH 8.0, 1 M sucrose, 2 ml water, 20 μl 0.5 M EDTA, and 20 μl lysozyme (10 mg/ml) were added. The cell suspension was allowed to incubate on ice for 30 minutes. Then, 100 μl 1 M MgSO4 was added and the suspension was pelleted at 5000×g for 10 minutes. […]
A membrane preparation from the E. coli strain K38 p3Z-A, pGP1-2, which was determined to contain 0.2 μg TcpA prepilin/μl, was the source of prepilin in the in vitro TcpJ proteases assay instead of purified prepilin. […]

## Nc1cc[n+](Cc2ccc(-c3ccc(C[n+]4ccc(N)c5ccccc54)cc3)cc2)c2ccccc12 [TC-7]
  IC50 value: lower IC50 value compared to compounds where R is methyl
